Test results taken from patent US9902734B2, “Nicotinic acetylcholine receptor agonists” (priority 2010, dated 2018).
Entries after “also recorded” stand apart in the source; their conditions may differ.

How the values were obtained:
[1] = tested on: nicotinic acetylcholine receptors (cell lines expressing various combinations of nicotinic-receptor subunits); assay: functional fluorescence bioassay of HPLC fractions across several cell lines; format: cell-based; details: for nicotinic receptor agonist activity (time-bioactivity profile of HPLC fractions): several cell lines
Method: (§1) The structures of compounds 1-6 are set forth below.
(§2) Biological Investigation of Phantasmidine. Semi-preparative HPLC-bioassay analysis was conducted as described previously^9 on the alkaloid fraction of E. anthonyi in several cell lines, including TE-671 (neuromuscular),^16 SH-SY5Y (ganglionic α3*, α3β4*, α7),^15 and several transfected cell lines expressing nicotinic receptor subunit combinations of α2-4 and β2/β4.^12,13,17
(§3) Collected analytical scale fractions in 96-well plates were reconstituted in situ with 300 μL Hanks balanced salt solution containing 20 mM HEPES at pH 7.4 (HBSS/HEPES) and were used as such. Cell lines expressing various nicotinic receptors were maintained in culture and used for functional fluorescence assays including SH-SY5Y, IMR-32, TE-671, KXα3β4R2, KXα4β4R1, and KXα4β2R2, as previously described.^9,11 Briefly, cells were plated onto 96-well poly-D-lysine-coated plates in Dulbecco's modified minimum essential media supplemented with 10% fetal bovine serum (supplemented with Geneticin G418 for KXα3β4R2, KXα4β4R1, and KXα4β2R2 cells) and grown to near confluence. The media was aspirated and the cells were gently washed with 2×100 μL HBSS/HEPES (pH 7.4). A solution of Molecular Devices no-wash membrane potential dye (30 μL) was added and the cells incubated in the dark at room temperature for 1 h. Plates were read on a FLEXSTATION™ (Molecular Devices) robotic plate reader at an excitation wavelength of 530 nm, emission wavelength of 565 nm, with a cutoff filter at 550 nm. Basal fluorescence was measured for 15 s and 30 μL of reconstituted E. anthonyi fraction in HBSS/HEPES were added. Response was measured for 105 s and 30 μL of 300 μM nicotine were added. The nicotine response was measured for 40 s and 30 μL of 160 mM KCl were added. Maximal fluorescence was measured for 40 s. Average basal fluorescence was subtracted and response was taken as the peak fluorescence for each addition divided by the maximal KCl fluorescence. Responses for each fraction were plotted as a function of time and compared to the UV and total ion chromatograms to identify active components. Preparative-scale isolation was then conducted and structures of active components were elucidated.

nicotinic receptors = details: cited from earlier work
[2] = molecular target: T1, KXα3β4R2 cells (HEK cells expressing rat α3 and β4 nicotinic receptor subunits) (Rattus norvegicus, UniProt P04757+P12392); format: cell-based
T1 construct: expressed in transfected cells; host or cells: HEK cells (KXα3β4R2)
T1 sequence (P12392 21-495): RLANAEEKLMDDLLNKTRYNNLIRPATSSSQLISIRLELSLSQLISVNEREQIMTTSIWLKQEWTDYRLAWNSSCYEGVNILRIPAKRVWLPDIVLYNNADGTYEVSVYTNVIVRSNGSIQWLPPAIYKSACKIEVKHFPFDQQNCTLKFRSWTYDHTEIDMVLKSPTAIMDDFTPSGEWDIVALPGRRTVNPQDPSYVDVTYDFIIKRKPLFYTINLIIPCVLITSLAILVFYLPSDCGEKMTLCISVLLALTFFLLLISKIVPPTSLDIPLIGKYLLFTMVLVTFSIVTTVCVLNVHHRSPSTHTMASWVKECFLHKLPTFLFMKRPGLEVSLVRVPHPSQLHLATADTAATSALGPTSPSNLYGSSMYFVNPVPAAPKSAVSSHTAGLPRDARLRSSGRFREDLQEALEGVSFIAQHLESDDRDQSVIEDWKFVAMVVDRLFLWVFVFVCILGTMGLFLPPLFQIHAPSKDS
T1 sequence (P04757 26-499): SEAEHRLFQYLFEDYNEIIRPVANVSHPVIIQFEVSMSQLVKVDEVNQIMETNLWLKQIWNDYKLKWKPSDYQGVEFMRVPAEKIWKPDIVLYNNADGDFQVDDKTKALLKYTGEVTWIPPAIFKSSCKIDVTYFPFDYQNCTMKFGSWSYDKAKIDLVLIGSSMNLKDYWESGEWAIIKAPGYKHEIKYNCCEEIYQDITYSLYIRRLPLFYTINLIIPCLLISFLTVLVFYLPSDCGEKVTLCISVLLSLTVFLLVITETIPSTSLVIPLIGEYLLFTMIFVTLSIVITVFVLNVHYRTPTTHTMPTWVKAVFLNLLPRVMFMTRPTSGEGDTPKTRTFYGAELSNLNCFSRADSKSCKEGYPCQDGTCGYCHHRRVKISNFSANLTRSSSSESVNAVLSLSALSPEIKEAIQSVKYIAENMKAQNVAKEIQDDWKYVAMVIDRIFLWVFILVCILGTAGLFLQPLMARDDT

[3] = tested on: IMR-32 cells (β4 nicotinic subunits); assay: functional fluorescence (membrane potential dye) bioassay of HPLC fractions; format: cell-based
Method: as §1, §2, §3

[4] = tested on: SH-SY5Y cells (ganglionic α3*, α3β4*, α7); assay: as above; format: cell-based
Method: as §1, §2, §3

[5] = molecular target: T2, KXα4β4R1 cells (β4 nicotinic subunits) (Rattus norvegicus, UniProt P09483+P12392); assay: as above; format: cell-based
T2 construct: expressed in transfected cells; host or cells: KXα4β4R1 (G418-selected transfected line)
T2 sequence (P09483 31-630): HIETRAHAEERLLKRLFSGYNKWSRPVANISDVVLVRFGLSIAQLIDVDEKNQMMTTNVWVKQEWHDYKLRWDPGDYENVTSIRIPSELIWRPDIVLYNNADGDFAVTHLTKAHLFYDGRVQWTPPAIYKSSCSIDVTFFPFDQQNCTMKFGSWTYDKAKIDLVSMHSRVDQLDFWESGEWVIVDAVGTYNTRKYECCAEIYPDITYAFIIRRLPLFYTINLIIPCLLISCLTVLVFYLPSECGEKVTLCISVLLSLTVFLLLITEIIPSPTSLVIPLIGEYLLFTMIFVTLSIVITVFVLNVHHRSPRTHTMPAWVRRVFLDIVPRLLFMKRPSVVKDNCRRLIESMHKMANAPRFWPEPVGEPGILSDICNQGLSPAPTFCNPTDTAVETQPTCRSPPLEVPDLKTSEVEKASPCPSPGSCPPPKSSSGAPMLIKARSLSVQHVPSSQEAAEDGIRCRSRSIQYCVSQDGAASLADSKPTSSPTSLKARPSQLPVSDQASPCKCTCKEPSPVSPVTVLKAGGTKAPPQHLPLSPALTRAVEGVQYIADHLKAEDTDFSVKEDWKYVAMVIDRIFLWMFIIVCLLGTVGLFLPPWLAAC
T2 sequence (P12392 21-495): as the sequence (P12392 21-495) above
Method: as §1, §2, §3

[6] = molecular target: T3, TE-671 cells (neuromuscular) (Homo sapiens, UniProt P02708+P07510+Q07001); assay: as above; format: cell-based
T3 construct: endogenous in cells; host or cells: TE-671
Method: as §1, §2, §3

[7] = molecular target: T4, KXα4β2R2 cells (β2-containing) (Rattus norvegicus, UniProt P09483+P12390); assay: as above; format: cell-based
T4 construct: expressed in transfected cells; host or cells: KXα4β2R2 (G418-selected transfected line)
T4 sequence (P12390 25-500): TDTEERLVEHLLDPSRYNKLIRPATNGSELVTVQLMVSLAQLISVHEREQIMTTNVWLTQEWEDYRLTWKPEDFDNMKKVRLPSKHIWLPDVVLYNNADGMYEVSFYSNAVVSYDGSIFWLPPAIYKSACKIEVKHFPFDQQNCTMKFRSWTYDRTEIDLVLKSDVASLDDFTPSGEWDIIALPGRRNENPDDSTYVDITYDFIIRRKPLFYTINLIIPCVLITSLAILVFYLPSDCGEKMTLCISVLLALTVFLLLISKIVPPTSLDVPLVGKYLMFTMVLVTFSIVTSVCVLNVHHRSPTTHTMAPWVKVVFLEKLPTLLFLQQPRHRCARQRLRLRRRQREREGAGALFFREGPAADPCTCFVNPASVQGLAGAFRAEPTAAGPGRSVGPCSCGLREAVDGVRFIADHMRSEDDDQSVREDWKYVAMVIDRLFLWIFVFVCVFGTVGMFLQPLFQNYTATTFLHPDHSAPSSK
T4 sequence (P09483 31-630): as the sequence (P09483 31-630) above
Method: as §1, §2, §3

[8] = molecular target: T5, K-177 cells (β2-containing) (Homo sapiens, UniProt P17787+P43681); assay: functional fluorescence bioassay of HPLC fractions; format: cell-based
T5 construct: expressed in transfected cells; host or cells: K-177
T5 sequence (P43681 29-627): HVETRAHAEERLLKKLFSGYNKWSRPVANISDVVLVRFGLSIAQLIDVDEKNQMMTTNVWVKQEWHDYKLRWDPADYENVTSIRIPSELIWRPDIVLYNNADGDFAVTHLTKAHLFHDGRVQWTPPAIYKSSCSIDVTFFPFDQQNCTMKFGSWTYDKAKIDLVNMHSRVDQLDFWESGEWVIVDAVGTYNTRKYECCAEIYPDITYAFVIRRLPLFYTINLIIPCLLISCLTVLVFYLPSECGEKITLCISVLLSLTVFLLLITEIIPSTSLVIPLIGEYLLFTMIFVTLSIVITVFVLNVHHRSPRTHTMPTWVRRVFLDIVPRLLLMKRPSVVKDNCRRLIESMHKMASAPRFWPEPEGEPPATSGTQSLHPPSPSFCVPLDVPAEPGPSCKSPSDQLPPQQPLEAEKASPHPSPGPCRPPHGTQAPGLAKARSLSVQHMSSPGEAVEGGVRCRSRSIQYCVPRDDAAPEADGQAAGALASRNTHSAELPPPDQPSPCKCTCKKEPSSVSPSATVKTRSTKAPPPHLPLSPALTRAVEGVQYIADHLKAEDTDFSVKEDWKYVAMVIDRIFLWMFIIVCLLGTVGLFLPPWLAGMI
T5 sequence (P17787 26-502): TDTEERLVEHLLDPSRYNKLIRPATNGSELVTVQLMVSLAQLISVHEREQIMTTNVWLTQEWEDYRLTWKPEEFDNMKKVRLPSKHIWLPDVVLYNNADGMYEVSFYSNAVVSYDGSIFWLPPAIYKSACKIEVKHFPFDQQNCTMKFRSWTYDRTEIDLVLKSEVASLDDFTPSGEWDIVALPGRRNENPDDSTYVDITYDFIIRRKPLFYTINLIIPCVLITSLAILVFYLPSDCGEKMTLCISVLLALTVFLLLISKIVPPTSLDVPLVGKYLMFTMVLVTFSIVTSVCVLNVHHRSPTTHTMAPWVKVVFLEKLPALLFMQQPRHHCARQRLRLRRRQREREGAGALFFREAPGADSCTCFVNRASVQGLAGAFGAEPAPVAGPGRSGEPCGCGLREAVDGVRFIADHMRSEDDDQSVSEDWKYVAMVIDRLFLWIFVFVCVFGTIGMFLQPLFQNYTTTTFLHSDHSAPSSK
Method: as §1, §2

## Clc1ccc(C2CC3CCC2N3)cn1 (centres unmarked) [Compound 1, epibatidine]
[1]
  nicotinic receptor agonist activity (time-bioactivity profile of HPLC fractions): active in all cell lines to varying degrees; also recorded: greatest activity in the sample regardless of cell line examined

## CN1C2CCC1C(c1ccc(Cl)nc1)C2 (centres unmarked) [Compound 3, N-methylepibatidine]
[1]
  nicotinic receptor agonist activity (time-bioactivity profile of HPLC fractions): responsible for the leading edge of the epibatidine activity; also recorded: significant bioactivity
Nicotinic receptors
  potency relative to epibatidine: essentially equipotent with epibatidine

## Clc1ccc2c(n1)O[C@@]13CC[C@@H]1NC[C@@H]23 [Compound 4, Phantasmidine]
[1]; across several cell lines expressing different nicotinic-receptor subtypes
  subtype selectivity relative to 1: altered subtype selectivity relative to 1
[1]
  nicotinic receptor agonist activity (time-bioactivity profile of HPLC fractions): significant bioactivity; also recorded: nicotinic agonist
[2]; KXα3β4R2 cells
  relative activity compared to 1 (height and area of activity peaks): higher relative activities
[3]
  relative activity compared to 1 (height and area of activity peaks): higher relative activities
[4]
  relative activity compared to 1 (height and area of activity peaks): higher relative activities
[5]
  relative activity compared to 1 (height and area of activity peaks): higher relative activities
[6]
  relative activity compared to 1 (height and area of activity peaks): less activity
[7]
  relative activity compared to 1 (height and area of activity peaks): less activity
[8]
  relative activity compared to 1 (height and area of activity peaks): less activity

## CC(=O)N[C@H]1CCCN2CCCC[C@@H]12 [Compound 2, epiquinamide, reference compound]
[1]
  nicotinic receptor agonist activity (time-bioactivity profile of HPLC fractions): artifact due to a cross-contamination from 1
[2]; cells expressing α3 and β4 subunits, fractions of E. anthonyi alkaloid extract
  nicotinic-agonist activity of isolated fraction: artifactual activity from cross contamination with epibatidine
